According to patent publication US9145444B2, “Compounds and methods associated with differential methylation of human papilloma virus genomes in epithelial cells” (Ruprecht-Karls-Universität Heidelberg, priority 2007, dated 2015):

Columns and labels:
[1] = phase I and II trials, systemic therapy; cited from earlier work
[2] = test system: early p97 HPV16 promoter; test: luciferase assay of p97 promoter activity in keratinocytes transfected with LCR16_Luc; type: cell-based, human
Experimental: The impact of treatment with epigenetic inhibitors (demethylation agents) on the activity of the p97 promoter is assessed using luciferase assay. Normal human keratinocytes transfected with the reporter plasmid LCR16_Luc, which contains the complete LCR fragment of the HPV-16 cloned in front of the luciferase gene were grown to about 50-60% confluence. Cells were treated with 2 μM and 4 μM 5-azacytidin for 24 and 72 hs.

[3] = test system: normal human firoblasts; details: normal human fibroblasts; cited from earlier work

| Compound | dose-limiting toxicity [1] | most commonly reported non-hematologic adverse effect [1] | p97 promoter activity reduced to ([2]; 2 μM, undifferentiated or differentiated cells, FIG. 9) | p97 promoter activity ([2]; 4 μM, undifferentiated and differentiated cells, FIG. 9) | activity of the early p97 promoter ([2]; normal human keratinocytes, LCR16_Luc reporter, 2 μM and 4 μM for 24 and 72 hs) | basal level and TGFβ-induced collagen biosynthesis [3] |
| --- | --- | --- | --- | --- | --- | --- |
| Nc1ncn([C@@H]2O[C@H](CO)[C@@H](O)[C@H]2O)c(=O)n1 [5-azacytidine, 5-Azacytidine] | myelosuppression | nausea and vomiting | 40-60% | significantly reduced to the basal level | decreased the activity of the early p97 promoter in a dose dependent manner | inhibits |
| Nc1ncn([C@H]2C[C@H](O)[C@@H](CO)O2)c(=O)n1 [decitabine, 5-Aza-20-deoxycytidine] | myelosuppression | nausea and vomiting |  |  |  |  |
